In patent US6297268A, “Imidazoles as cholesterol lowering agents” (Schering Corporation, priority 1999, dated 2001):

Legend:
serum cholesterol [1] = assay: Cholesterol lowering properties of the compound of Formula II in monkeys: serum cholesterol; format: in vivo, cynomolgus monkey (Macaca fascicularis); conditions: for % change in group mean serum cholesterol from last pretest to after 14 doses: daily oral (gavage), 22 hours after 14th dose
Experimental: (§1) Similar to Example 2, a homogeneous suspension of the compound of Formula II in aqueous methyl cellulose (0.4 percent weight/volume) was prepared for these studies and stored at ambient temperature conditions. The amount of the suspension fed to each monkey was calculated to provide the desired dosage of the compound of Formula II (given below) for that monkey.
(§2) Adult cynomolgus monkeys (four per sex per group, Macaca fascicularis monkey, supplied by Charles River BRF Incorporated, Houston, Tex.) were given single daily oral doses (gavage) of the compound of Formula II (30, 100 or 300 mg/kg of body weight) in the form of the above-stated suspension for 16 to 18 days. […] The monkeys were fed with nutritionally adequate amounts of PMI Inc. Certified Primate Diet® #46 (available from PMI Feeds, Incorporated) daily, at least one hour after dosing was completed. Certified monkey treats were offered daily. Tap water was provided ad libitum. Blood was collected and serum chemistry parameters were measured twice pretest and after 14 daily doses (22 hours after the 14th dose).
Mild to moderate decreases in serum cholesterol, compared with pretest and concurrent and/or historical control data, occurred in all dosed monkeys. The decreases were generally dose-dependent, except that there was no real difference between mid- and high-dose females.

serum triglyceride = assay: Cholesterol lowering properties of the compound of Formula II in rats: serum triglycerides; format: in vivo, rat (Crl:CD(SD)BR VAF/Plus); conditions: for Group Mean Serum Triglyceride Concentrations: single daily oral doses (gavage)
Experimental: as §1, with “A” for “Similar to Example 2, a”, “(aqueous methyl cellulose concentration: 0.4” for “(0.4”, “rat” for “monkey”, “(see” for “(given”, “rat.” for “monkey.”
(§3) Six-week-old rats (Rat/Crl:CD®(SD)BR VAF/Plus®, supplied by Charles River Laboratories, Kingston, N.Y.; ten rats per sex per group) were given single daily oral doses (via gavage tube) of the compound of Formula II (30, 100 or 300 mg/kg of body weight of the rat) as the above-stated suspension for 15 to 16 days. […] The rats were housed individually in suspended stainless steel wire mesh cages and were fed with a meal of Certified Rodent Diet® 5002 available from PMI® Feeds, Incorporated, St. Louis, Mo. Tap water was provided ad libitum during the study period. Blood was collected at necropsy over two days (after 15-16 doses), and serum chemistry parameters were measured.
(§4) The results obtained at necropsy (after 15-16 doses) are given in Table 1 for both the male and female rats: […]

[2] = Plasma analysis to confirm absorption in rats; format: in vivo, rat (Crl:CD(SD)BR VAF/Plus); conditions: oral, plasma analysis after one and 14 doses
Experimental: as §3, with “Blood was collected at necropsy over two days (after 15-16 doses), and serum chemistry parameters were measured.” left out

serum cholesterol [3] = assay: Cholesterol lowering properties of the compound of Formula II in rats: serum cholesterol; format: in vivo, rat (Crl:CD(SD)BR VAF/Plus); conditions: for Group Mean Serum Cholesterol: single daily oral doses (gavage), at necropsy after 15-16 doses; for serum cholesterol (result in words): oral
Experimental: as §1, with “A” for “Similar to Example 2, a”, “(aqueous methyl cellulose concentration: 0.4” for “(0.4”, “rat” for “monkey”, “(see” for “(given”, “rat.” for “monkey.”
as §3, §4

[4] = Plasma levels and pharmacokinetics in monkeys; format: in vivo, cynomolgus monkey (Macaca fascicularis); conditions: oral, plasma levels after one and 16 doses
Experimental: as §2

Compound: O=C(NCc1ccc(Cc2c[nH]cn2)cc1)Nc1cc(Cl)cc(Cl)c1 [compound of Formula II]
- cholesterol (result in words) (serum cholesterol [1]; all monkeys dosed with 30, 100 or 300 mg/kg, oral): mildly to moderately decreased cholesterol
- % change in group mean serum cholesterol from last pretest to after 14 doses (serum cholesterol [1]; female monkeys, 30 mg/kg, control -03): -24%
- % change in group mean serum cholesterol from last pretest to after 14 doses (serum cholesterol [1]; female monkeys, 100 mg/kg, control -03, *n=3, excludes No. 22F, sacrificed on Day 9): -63%
- % change in group mean serum cholesterol from last pretest to after 14 doses (serum cholesterol [1]; female monkeys, 300 mg/kg, control -03): -59%
- % change in group mean serum cholesterol from last pretest to after 14 doses (serum cholesterol [1]; male monkeys, 30 mg/kg, control +02): -25%
- % change in group mean serum cholesterol from last pretest to after 14 doses (serum cholesterol [1]; male monkeys, 100 mg/kg, control +02): -46%
- % change in group mean serum cholesterol from last pretest to after 14 doses (serum cholesterol [1]; male monkeys, 300 mg/kg, control +02): -61%
- Group Mean Serum Triglyceride Concentrations (serum triglyceride; female rats, 30 mg/kg, at necropsy after 15-16 doses, control 22.4): 20.5 mg/dL
- Group Mean Serum Triglyceride Concentrations (serum triglyceride; female rats, 100 mg/kg, after 15-16 doses, control 22.4, *group mean excludes individuals with values <10, actual mean would be lower): 13.6 mg/dL
- Group Mean Serum Triglyceride Concentrations (serum triglyceride; female rats, 300 mg/kg, after 15-16 doses, control 22.4, *group mean excludes individuals with values <10, actual mean would be lower): 16.3 mg/dL
- serum triglyceride (result in words) (serum triglyceride; male and female rats, 100 or 300 mg/kg, oral): Lower serum triglyceride concentrations
- Group Mean Serum Triglyceride Concentrations (serum triglyceride; male rats, 30 mg/kg, at necropsy after 15-16 doses, control 40.7): 37.2 mg/dL
- Group Mean Serum Triglyceride Concentrations (serum triglyceride; male rats, 100 mg/kg, at necropsy after 15-16 doses, control 40.7): 27.8 mg/dL
- Group Mean Serum Triglyceride Concentrations (serum triglyceride; male rats, 300 mg/kg, at necropsy after 15-16 doses, control 40.7): 21.2 mg/dL
- absorption (result in words) [2]: confirm absorption
- Group Mean Serum Cholesterol (serum cholesterol [3]; female rats, 30 mg/kg, control 29.7): 26.5 mg/dL
- Group Mean Serum Cholesterol (serum cholesterol [3]; female rats, 100 mg/kg, control 29.7): 19.4 mg/dL
- Group Mean Serum Cholesterol (serum cholesterol [3]; female rats, 300 mg/kg, control 29.7): 16.0 mg/dL
- serum cholesterol (result in words) (serum cholesterol [3]; female rats, 100 or 300 mg/kg, compared with concurrent control): Lower serum cholesterol concentrations
- Group Mean Serum Cholesterol (serum cholesterol [3]; male rats, 30 mg/kg, control 34.7): 20.9 mg/dL
- Group Mean Serum Cholesterol (serum cholesterol [3]; male rats, 100 mg/kg, control 34.7): 16.9 mg/dL
- Group Mean Serum Cholesterol (serum cholesterol [3]; male rats, 300 mg/kg, control 34.7): 12.3 mg/dL
- serum cholesterol (result in words) (serum cholesterol [3]; male rats, 30, 100 or 300 mg/kg): dose-dependent lower serum cholesterol
- absorption (result in words) [4]: confirm absorption
